Laboratory results as given in patent publication US20230255943A1, “MMP-9 AND MMP-12 INHIBITION FOR TREATING SPINAL CORD INJURY OR RELATED INJURY TO NEUROLOGICAL TISSUE” (The University of Birmingham, priority 2020, published 2023).

Tests used:
[1] = test system: other members of the enzyme family; test: Selectivity to other members of the enzyme family; assay type: biochemical, human; conditions: relative to MMP-9 and MMP-12
IL-1β, TNF-α and IL-6 = test: qRT-PCR of proinflammatory pain markers after DC injury in mice; assay type: in vivo, mouse; conditions: for injury-induced rise of proinflammatory pain markers IL-1β, TNF-α and IL-6: 3d after DC injury
Method: For oral delivery of AZD1236, n=6 adult male C57BL6 mice/group (Charles River, Margate, UK) were randomly allocated to either: (1), Sham (control; partial laminectomy but no DC crush injury); (2), DC crush injury+vehicle (partial laminectomy followed by DC crush injury and injection of vehicle); (3), DC crush injury+100 mg/kg AZD1236; (4), DC crush injury+200 mg/kg AZD1236; and (5), DC crush injury+300 mg/kg AZD1236. For intrathecal (it) delivery of AZD1236, adult male C57BL6 mice (25-30 g) (Charles River, Margate, UK) were randomly allocated to either: (1), Sham (control; partial laminectomy but no DC crush injury); (2), DC crush injury+vehicle (partial laminectomy followed by DC crush injury and injection of vehicle); (3), DC crush injury+2.5 mg/kg AZD1236; (4), DC crush injury+5 mg/kg AZD1236; and (5), DC crush injury+10 mg/kg AZD1236. For intrathecal delivery an indwelling atlanto-occipital intrathecal catheter was inserted into the intrathecal space, as described previously (F. A. Oladosu, B. P. Ciszek, S. C. O'Buckley, A. G. Nackley, Novel intrathecal and subcutaneous catheter delivery systems in the mouse. J Neurosci Methods 264, 119-128 (2016)). Briefly, with mice in the sternal recumbency a small incision was made at the nape of the neck followed by detachment of the muscles on either side of the external occipital crest to expose the A-O membrane. The membrane was incised and a 6 cm Alzet mouse intrathecal catheter (Alzet, Cupertino, Calif., USA) and polyurethane segments were gently guided 2.5 cm into the intrathecal space. […]
DC crush injury was administered bilaterally at the T8 vertebral level as described previously (S. Surey, M. Berry, A. Logan, R. Bicknell, Z. Ahmed, Differential cavitation, angiogenesis and wound-healing responses in injured mouse and rat spinal cords. Neuroscience 275, 62-80 (2014); M. L. Read, S. Mir, R. Spice, R. J. Seabright, E. L. Suggate, Z. Ahmed, M. Berry, A. Logan, Profiling RNA interference (RNAi)-mediated toxicity in neural cultures for effective short interfering RNA design. J Gene Med 11, 523-534 (2009)). […]

[2] = test system: mice with DC crush injury; test: Immunohistochemistry of CD11b, CD68 and GFAP at lesion site; assay type: in vivo, mouse; conditions: immediate or delayed by 24 h
Source text: After killing animals by exposure to rising concentrations of CO2, mice were intracardially perfused with 4% formaldehyde (TAAB Laboratories, Berkshire, UK) in 0.1M phosphate buffered saline (PBS). The lesion site+5 mm either side were dissected out, post-fixed in 4% formaldehyde and subjected to a graded series of sucrose solutions for cryoprotection. Spinal cords were blocked in OCT mounting compound (TAAB laboratories), sectioned longitudinally at 15 μm-thick using a cryostat (Brights Instruments, Huntingdon, UK) before being collected on charged glass slides (ThermoFisher Scientific, Loughborough, UK) and kept at −20° C. until required. Slides were numbered consecutively and sections from the middle of the lesion site were chosen for all immunohistochemical analyses, as described by previously (Surey S, Berry M, Logan A, Bicknell R, Ahmed Z. Differential cavitation, angiogenesis and wound-healing responses in injured mouse and rat spinal cords. Neuroscience 2014; 275: 62-80).
Fluorescent immunohistochemistry was performed as described previously (S. Surey, M. Berry, A. Logan, R. Bicknell, Z. Ahmed, Differential cavitation, angiogenesis and wound-healing responses in injured mouse and rat spinal cords. Neuroscience 275, 62-80 (2014)). […] Laminin was detected at 4 weeks after DC injury and treatment using a rabbit polyclonal anti-laminin primary antibody (ab11575; 1:400 dilution, Abcam). Macrophages were detected with a rabbit polyclonal anti-CD68 antibody (ab1525212; 1:500 dilution, Abcam); microglia were detected using a rabbit polyclonal antibody to CD11b (ab128797, 1:500 dilution, Abcam); GFAP was detected using a polyclonal anti-GFAP antibody (SAB5700611, 1:400 dilution, Sigma) were all detected at 10 days after DC injury and treatment. Semaphorin-3A (Sema-3A) and chondroitin sulphate proteoglycan (CSPG) was detected using monoclonal anti-CS-56 antibody (C8035; 1:200 dilution, Sigma) at 7 days after injury. […] CTB labelled axons in the mouse were detected using a goat polyclonal anti-CTB antibody (#703; 1:1000 dilution, List Biological Labs) at 6 weeks after DC injury. […]

## C[C@]1(CS(=O)(=O)N2CC=C(C#Cc3cnc(C4CC4)nc3)CC2)NC(=O)NC1=O [AZD1236]
[1]
  selectivity to other members of the enzyme family: > 350 fold
IL-1β, TNF-α and IL-6; intrathecal, 5 mg/kg
  injury-induced rise of proinflammatory pain markers IL-1β, TNF-α and IL-6: reduced them to sham-treated levels
IL-1β, TNF-α and IL-6; optimal doses, 24 h delay vs immediate
  proinflammatory cytokines, 24-h delayed treatment: equally as effective as immediate delivery
IL-1β, TNF-α and IL-6; oral, 200 mg/kg
  injury-induced rise of proinflammatory pain markers IL-1β, TNF-α and IL-6: reduced them to sham-treated levels
[2]
  CD11b immunoreactivity at the lesion site: significantly reduced
  CD68 immunoreactivity at the lesion site: significantly reduced
  GFAP+ immunoreactivity at the lesion site: significantly reduced
